Here are results for 26 compounds from US20160200733A1, “SUBSTITUTED THIENO[2,3-B]PYRIDINE-2-CARBOXAMIDE ANALOGS AS POSITIVE ALLOSTERIC MODULATORS OF THE MUSCARINIC ACETYLCHOLINE RECEPTOR M4” (Vanderbilt University, priority 2013, published 2016).

The term EC50 denotes the concentration needed to bring the measured effect to its halfway point. By Emax is commonly meant the size of the effect at its maximum, as opposed to the concentration needed.

In the experiment the target is T1, mAChR hM4 (Homo sapiens, UniProt P08173).
T1 construct: expressed in transfected cells; host or cells: CHO-K1 (Chinese hamster ovary) cells
T1 sequence (P08173 1-479): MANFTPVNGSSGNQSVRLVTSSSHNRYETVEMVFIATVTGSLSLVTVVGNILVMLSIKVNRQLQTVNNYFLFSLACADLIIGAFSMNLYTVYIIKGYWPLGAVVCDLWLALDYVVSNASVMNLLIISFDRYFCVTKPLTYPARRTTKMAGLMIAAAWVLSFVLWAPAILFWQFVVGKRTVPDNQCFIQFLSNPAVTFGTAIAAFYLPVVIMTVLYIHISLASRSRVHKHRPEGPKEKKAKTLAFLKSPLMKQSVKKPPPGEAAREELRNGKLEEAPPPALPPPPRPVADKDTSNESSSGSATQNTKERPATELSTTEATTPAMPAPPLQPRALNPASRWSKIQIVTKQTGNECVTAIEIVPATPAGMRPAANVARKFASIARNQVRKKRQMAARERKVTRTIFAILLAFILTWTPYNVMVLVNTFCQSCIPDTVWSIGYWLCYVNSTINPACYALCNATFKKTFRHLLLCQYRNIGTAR
Nature of the experiment: mAChR M4 cell-based functional assay (calcium flux, potentiation of EC20 acetylcholine response). The conditions noted are these: mAChR hM4 cell-line; for EC50: >10,000 estimated for low potency compounds lacking a plateau. The source says:
In one aspect, the disclosed compounds potentiate the agonist response (e.g., acetylcholine) of mAChR M4. In a further aspect, the disclosed compounds increase mAChR M4 response to non-maximal concentrations of agonist in the presence of compound compared to the response to agonist in the absence of compound. […] For example, activation of mAChR M4 activity can be determined by measurement of calcium flux in response to agonist, e.g. acetylcholine, in cells loaded with a Ca^2+-sensitive fluorescent dye (e.g., Fluo-4). In a further aspect, the calcium flux was measured as an increase in fluorescent static ratio. In a yet further aspect, positive allosteric modulator activity was analyzed as a concentration-dependent increase in the EC20 acetylcholine response (i.e. the response of mAChR M4 at a concentration of acetylcholine that yields 20% of the maximal response).
In one aspect, the disclosed compounds activate mAChR M4 response as an increase in calcium fluorescence in mAChR M4-transfected CHO-K1 cells in the presence of the compound, compared to the response of equivalent CHO-K1 cells in the absence of the compound. […] In a further aspect, the mAChR M4-transfected CHO-K1 cells are transfected with human mAChR M4. In a still further aspect, the mAChR M4-transfected CHO-K1 cells are transfected with rat mAChR M4.
Substituted 3-aminothieno[2,3-c]pyridine-2-carboxamide analogs were synthesized as described above. Activity (EC50 and Emax) was determined in the mAChR M4 cell-based functional assay as described above, and the data are shown in Table II for assays conducted using mAChR hM4 cell-line. The compound number corresponds to the compound numbers used in Table I.

Turning to `Cc1cc(C)c2c(-c3cnn(C)c3)c(C(=O)NCc3ccc(S(C)(=O)=O)cc3)sc2n1` [Compound 36, 4,6-dimethyl-3-(1-methyl-1H-pyrazol-4-yl)-N-(4-(methylsulfonyl)benzyl)thieno[2,3-b]pyridine-2-carboxamide], the EC50 is above 10000 nM.
Turning to `Cc1cc(C)c2c(Br)c(C(=O)N(C)Cc3ccc(S(C)(=O)=O)cc3)sc2n1` [Compound 37, 3-bromo-N,4,6-trimethyl-N-(4-(methylsulfonyl)benzyl)thieno[2,3-b]pyridine-2-carboxamide], the EC50 is above 10000 nM.
`CCc1c(C(=O)NCc2ccc(S(C)(=O)=O)cc2)sc2nc(C)cc(C)c12` [Compound 38, 3-ethyl-4,6-dimethyl-N-(4-(methylsulfonyl)benzyl)thieno[2,3-b]pyridine-2-carboxamide]: the EC50 was 4100 nM. Moreover, the Emax at 30 µM (% ACh maximum at 30 μM) turned out to be 67%.
As to `Cc1nc2sc(C(=O)NCc3ccc4c(c3)OCCO4)c(Br)c2c(C)c1Cl` [Compound 39, 3-bromo-5-chloro-N-((2,3-dihydrobenzo[b][1,4]dioxin-6-yl)methyl)-4,6-dimethylthieno[2,3-b]pyridine-2-carboxamide], the EC50 is above 10000 nM.
On the same count and under the same terms, under `COc1ccc(C(C)NC(=O)c2sc3nc(C)c(Cl)c(C)c3c2Br)cc1` (stereo not shown) [Compound 40, 3-bromo-5-chloro-N-(1-(4-methoxyphenyl)ethyl)-4,6-dimethylthieno[2,3-b]pyridine-2-carboxamide] stands above 10000 nM.
As for `Cc1nc2sc(C(=O)NC3COC3)c(Br)c2c(C)c1Cl` [Compound 41, 3-bromo-5-chloro-4,6-dimethyl-N-(oxetan-3-yl)thieno[2,3-b]pyridine-2-carboxamide], the EC50 is 530 nM. Moreover, under “% ACh maximum at 30 μM”, the Emax at 30 µM was found to be 84%.
As to `Cc1nc2sc(C(=O)NCC3CC3)c(Br)c2c(C)c1Cl` [Compound 42, 3-bromo-5-chloro-N-(cyclopropylmethyl)-4,6-dimethylthieno[2,3-b]pyridine-2-carboxamide], the EC50 is above 10000 nM.
On to `COc1ccc(CN(C)C(=O)c2sc3nc(C)c(Cl)c(C)c3c2Br)cc1` [Compound 43, 3-bromo-5-chloro-N-(4-methoxybenzyl)-N,4,6-trimethylthieno[2,3-b]pyridine-2-carboxamide], for which the EC50 was above 10000 nM.
For the compound `Cc1nc2sc(C(=O)NC3CCOC3)c(Br)c2c(C)c1Cl` (stereo not shown) [Compound 44, 3-bromo-5-chloro-4,6-dimethyl-N-(tetrahydrofuran-3-yl)thieno[2,3-b]pyridine-2-carboxamide], the EC50 was 590 nM. For the same compound, the Emax at 30 µM (% ACh maximum at 30 μM) turned out to be 54%.
Turning to `Cc1nc2sc(C(=O)NCc3ccc(S(C)(=O)=O)cc3)c(Br)c2c(C)c1Cl` [Compound 45, 3-bromo-5-chloro-4,6-dimethyl-N-(4-(methylsulfonyl)benzyl)thieno[2,3-b]pyridine-2-carboxamide], the concentration for a half-maximal effect (EC50) was above 10000 nM.
With `Cc1nc2sc(C(=O)NCc3ccc4c(c3)CCO4)c(Br)c2c(C)c1Cl` [Compound 46, 3-bromo-5-chloro-N-((2,3-dihydrobenzofuran-5-yl)methyl)-4,6-dimethylthieno[2,3-b]pyridine-2-carboxamide], the EC50 was above 10000 nM.
The same measure, in the same setting: the value for `COc1ccc(CNC(=O)c2sc3nc(C)c(Cl)c(C)c3c2Br)cc1` [Compound 47, 3-bromo-5-chloro-N-(4-methoxybenzyl)-4,6-dimethylthieno[2,3-b]pyridine-2-carboxamide] was above 10000 nM.
With `Cc1nc2sc(C(=O)NC3(C)COC3)c(Br)c2c(C)c1Cl` [Compound 48, 3-bromo-5-chloro-4,6-dimethyl-N-(3-methyloxetan-3-yl)thieno[2,3-b]pyridine-2-carboxamide], the EC50 was 570 nM. For the same compound, where the note is “% ACh maximum at 30 μM”, the Emax at 30 µM came out at 54%.
The like results for `Cc1nc2sc(C(=O)NC3CC3)c(Br)c2c(C)c1Cl` [Compound 49, 3-bromo-5-chloro-N-cyclopropyl-4,6-dimethylthieno[2,3-b]pyridine-2-carboxamide] were, in that order, 770 nM and 62%.
As for `Cc1nc2sc(C(=O)NCC(C)(C)O)c(C3CC3)c2c(C)c1Cl` [Compound 50, 5-chloro-3-cyclopropyl-N-(2-hydroxy-2-methylpropyl)-4,6-dimethylthieno[2,3-b]pyridine-2-carboxamide], the EC50 is above 10000 nM. Besides, the Emax at 30 µM (% ACh maximum at 30 μM) stood at 43%.
Consider `Cc1nc2sc(C(=O)NC3CCS(=O)(=O)C3)c(C3CC3)c2c(C)c1Cl` (stereo not shown) [Compound 51, 5-chloro-3-cyclopropyl-N-(1,1-dioxidotetrahydrothiophen-3-yl)-4,6-dimethylthieno[2,3-b]pyridine-2-carboxamide], for which the EC50 is above 10000 nM.
As to `Cc1nc2sc(C(=O)NC3CCOC3)c(C3CC3)c2c(C)c1Cl` (stereo not shown) [Compound 52, 5-chloro-3-cyclopropyl-4,6-dimethyl-N-(tetrahydrofuran-3-yl)thieno[2,3-b]pyridine-2-carboxamide], the EC50 was 1600 nM. Further, the Emax at 30 µM (% ACh maximum at 30 μM) came to 60%.
Take `COc1ccc(CNC(=O)c2sc3nc(C)c(Cl)c(C)c3c2C2CC2)cc1` [Compound 53, 5-chloro-3-cyclopropyl-N-(4-methoxybenzyl)-4,6-dimethylthieno[2,3-b]pyridine-2-carboxamide]: the EC50 was above 10000 nM.
For `Cc1nc2sc(C(=O)NC3CC3)c(C3CC3)c2c(C)c1Cl` [Compound 54, 5-chloro-N,3-dicyclopropyl-4,6-dimethylthieno[2,3-b]pyridine-2-carboxamide], the EC50 is 430 nM. The Emax at 30 µM (% ACh maximum at 30 μM) was 50%.
Consider `Cc1nc2sc(C(=O)NC3COC3)c(C3CC3)c2c(C)c1Cl` [Compound 55, 5-chloro-3-cyclopropyl-4,6-dimethyl-N-(oxetan-3-yl)thieno[2,3-b]pyridine-2-carboxamide], for which the EC50 is 860 nM. Moreover, the Emax at 30 µM (% ACh maximum at 30 μM) was determined as 85%.
Take `Cc1nc2sc(C(=O)NC3(C)COC3)c(C3CC3)c2c(C)c1Cl` [Compound 56, 5-chloro-3-cyclopropyl-4,6-dimethyl-N-(3-methyloxetan-3-yl)thieno[2,3-b]pyridine-2-carboxamide]: the EC50 is 1400 nM. Besides, the Emax at 30 µM (% ACh maximum at 30 μM) was 38%.
Regarding `Cc1nc2sc(C(=O)NC3CCOC3)c(C)c2c(C)c1Cl` (stereo not shown) [Compound 57, 5-chloro-3,4,6-trimethyl-N-(tetrahydrofuran-3-yl)thieno[2,3-b]pyridine-2-carboxamide], the EC50 was 1200 nM. The Emax at 30 µM (% ACh maximum at 30 μM) stood at 79%.
In the case of `Cc1nc2sc(C(=O)NC3CCN(C)CC3)c(C)c2c(C)c1Cl` [Compound 58, 5-chloro-3,4,6-trimethyl-N-(1-methylpiperidin-4-yl)thieno[2,3-b]pyridine-2-carboxamide], the EC50 was above 10000 nM.
Consider `Cc1nc2sc(C(=O)NC3CCS(=O)(=O)C3)c(C)c2c(C)c1Cl` (stereo not shown) [Compound 59, 5-chloro-N-(1,1-dioxidotetrahydrothiophen-3-yl)-3,4,6-trimethylthieno[2,3-b]pyridine-2-carboxamide], for which the EC50 is 950 nM. For the same compound, where the note is “% ACh maximum at 30 μM”, the Emax at 30 µM amounted to 45%.
Take `Cc1nc2sc(C(=O)NC3CC3)c(C)c2c(C)c1Cl` [Compound 60, 5-chloro-N-cyclopropyl-3,4,6-trimethylthieno[2,3-b]pyridine-2-carboxamide]: the EC50 was 380 nM. Moreover, the Emax at 30 µM (% ACh maximum at 30 μM) turned out to be 79%.
In the case of `Cc1nc2sc(C(=O)NC3COC3)c(Br)c2c(C)c1Cl` [Compound 61, 3-bromo-5-chloro-4,6-dimethyl-N-(oxetan-3-yl)thieno[2,3-b]pyridine-2-carboxamide], the EC50 was 360 nM. For the same compound, the “Emax (%)” value (% ACh maximum at 30 μM) worked out at 70%.
